# Tests used:
# [1] = system: biochemical bone activity markers; experiment: Phase 3 TIW study, biochemical bone activity markers (Table C); format: in vivo, human; conditions: CKD Stage 3 and 4, TIW treated subjects (Table C)
# Source text: Serum bone-specific alkaline phosphate and serum osteocalcin are considered more sensitive bone markers to evaluate degree of bone remodeling than urinary bone marker. […] These subjects received treatment with the oral formulations of the present invention or a placebo. The bone markers examined in these subjects were serum osteocalcin, serum bone-specific alkaline phosphatase, urinary pyridinoline, and deoxypyridinoline. If more than 1 biochemical bone activity marker measurement existed for a subject on a particular day, the higher measurement was considered to be that subject's biochemical bone activity marker measurement for that day. […] The Final Visit measurement was defined as the last biochemical bone activity marker measurement following the first dose of study drug.
# (§1) The Week 11 Visit measurement was defined as the biochemical bone activity marker measurement on the day closest to the Week 11 scheduled visit, for which the possible measurements to choose from were those collected within 64 and 77 days following the first dose of study drug.
# (§2) Changes from baseline to Week 11 Visit and to Final Visit in biochemical bone activity markers were compared between oral paricalcitol and placebo using an ANOVA with treatment as the factor on the combined Phase 3 all treated subject population (Table F). Also, the changes from baseline to Week 11 Visit and to Final Visit were compared between oral paricalcitol and placebo using an ANCOVA with baseline as the second factor on the combined Phase 3 all treated subject population (Table G).
# The study was performed in 4 parts: a Screening Visit, a Pre-Treatment Phase, a Treatment Phase, and a Follow-Up Phase. At the Screening Visit, subjects reviewed and signed the informed consent form prior to the conduct of any study-specific screening procedures. A spot urine sample was used to calculate calcium/creatinine ratio. A blood sample was drawn for iPTH, blood urea nitrogen (BUN), albumin and serum creatinine levels. […] The serum creatinine, BUN, and albumin values were used to calculate the subject's estimated glomerular filtration rate (eGFR) using a formula derived from the “Modification of Diet in Renal Disease” (MDRD) study. Subjects with a calculated eGFR of 15 to 60 mL/min were eligible to undergo Pre-Treatment Phase procedures. The Pre-Treatment Phase was 1 to 4 weeks. During this phase, subjects had 2 scheduled office visits. The office visits could have occurred at any time over a 4-week period but must have been at least 1 day apart. During these visits, subjects were to meet laboratory criteria regarding serum iPTH, calcium, and phosphorus levels. If the subject was unable to meet these criteria, he or she may have been re-screened once after 4 weeks. […] Subjects who satisfied inclusion and exclusion criteria after a minimum of 1 week in the Pre-Treatment Phase were eligible to enter the Treatment Phase. During the Treatment Phase, subjects were to self-administer study drug 3 times weekly, on Monday, Wednesday and Friday, for a total of 24 weeks. The initial dose was 2 or 4 mcg (depending on baseline iPTH levels). Procedures to be performed during the Treatment Phase included vital signs, chemistry and hematology, urinary pyridinoline, urinary deoxypyridinoline, serum bone-specific alkaline phosphatase, serum osteocalcin, urinalysis, spot urine for calcium/creatinine ratio, and recording of adverse events and concurrent medications. Serum iPTH, calcium, phosphorus, and albumin were measured every 2 weeks. Dose adjustments were to be made according to these chemistry results for iPTH, calcium, and phosphorus. Doses may have been increased in 2 mcg increments every 4 weeks. Dose reductions were to occur according to a protocol-specified algorithm. However, dosing could have been adjusted any time if, in the judgment of the Investigator, a risk to subject safety existed.
# [2] = Phase 3 TIW study, safety (Example 7); format: in vivo, human
# Description: Safety: Safety was assessed through an evaluation of clinically meaningful hypercalcemia (2 consecutive calcium results >10.5 mg/dL). Additionally, safety was assessed by the incidence of adverse events, the change from baseline in chemistry, hematology and urinalysis laboratory variables, the change from baseline in subject vital signs, and progressive changes in renal function observed via changes in eGFR.
# All randomized subjects who received at least 1 dose of study drug were used in safety analyses. The primary safety analysis was a comparison between the paricalcitol and placebo treatment groups of the proportion of subjects achieving clinically meaningful hypercalcemia (2 consecutive calcium measurements >10.5 mg/dL). This comparison was performed using a Fisher's exact test. Secondary safety analyses were performed comparing changes/percent changes from baseline between the paricalcitol and placebo treatment groups using a one-way ANOVA with treatment group as the factor for the following variables: hematology, complete chemistry, and urinalysis variables; 24-hour urine collections, eGFR, urinary calcium/creatinine ratio, cardiovascular markers, and vital signs. Secondary safety analyses also consisted of an analysis of “treatment-emergent” adverse events (i.e., adverse events with an onset date on or after the date the first dose of study drug was taken). Adverse events were summarized by body system and COSTART term according to the COSTART V adverse event-coding dictionary. Comparisons of the percentage of subjects experiencing an adverse event between the Oral paricalcitol and placebo treatment groups were performed using a Fisher's exact test.
# [3] = Phase 3 once daily study, safety (Example 8)
# Description: Additionally, safety was assessed by the incidence of adverse events, the change from baseline in chemistry, hematology and urinalysis laboratory variables, the change from baseline in subject vital signs, and progressive changes in renal function observed via changes in eGFR.
# All randomized subjects who received at least 1 dose of study drug were used in safety analyses.
# Secondary safety analyses also consisted of an analysis of “treatment-emergent” adverse events (i.e., adverse events with an onset date on or after the date the first dose of study drug was taken). Adverse events were summarized by body system and COSTART term according to the COSTART V adverse event-coding dictionary. Comparisons of the percentage of subjects experiencing an adverse event between the Paricalcitol and placebo treatment groups were performed using a Fisher's exact test.
# [4] = system: biochemical bone activity markers; experiment: Phase 3 once daily study, biochemical bone activity markers (Table E); format: in vivo, human; conditions: CKD Stage 3 and 4, daily (QD) treated subjects (Table E)
# Description: Serum bone-specific alkaline phosphate and serum osteocalcin are considered more sensitive bone markers to evaluate degree of bone remodeling than urinary bone marker. […] As shown in Examples 5-7 and Tables C (Example 5), Table D (Example 6) and Table E (Example 7), certain biochemical bone activity marker variables were analyzed in CKD Stage 3 and 4 subjects. These subjects received treatment with the oral formulations of the present invention or a placebo. The bone markers examined in these subjects were serum osteocalcin, serum bone-specific alkaline phosphatase, urinary pyridinoline, and deoxypyridinoline. If more than 1 biochemical bone activity marker measurement existed for a subject on a particular day, the higher measurement was considered to be that subject's biochemical bone activity marker measurement for that day. […] The Final Visit measurement was defined as the last biochemical bone activity marker measurement following the first dose of study drug.
# as §1, §2
# During the Treatment Phase, subjects were to self-administer study drug once daily for a total of 24 weeks. The initial dose was 1 or 2 mcg (depending on baseline iPTH levels). Procedures to be performed during the Treatment Phase included vital signs, chemistry and hematology, urinary pyridinoline, urinary deoxypyridinoline, serum bone-specific alkaline phosphatase, serum osteocalcin, urinalysis, spot urine for calcium/creatinine ratio, and recording of adverse events and concurrent medications. Serum iPTH, calcium, phosphorus, and albumin were measured every 2 weeks. Dose adjustments were to be made according to these chemistry results for iPTH, calcium, and phosphorus. Doses may have been increased in 1 mcg increments every 4 weeks. Dose reductions were to occur according to a protocol-specified algorithm. However, dosing could have been adjusted any time if, in the judgment of the Investigator, a risk to subject safety existed.
smiles,measurement,setting,value
"C[C@H](/C=C/[C@H](C)C(C)(C)O)[C@H]1CC[C@H]2/C(=C/C=C3C[C@@H](O)C[C@H](O)C3)CCC[C@]12C [Paricalcitol, 19-nor-1α,3β,25-trihydroxy-9,10-secoergosta-5(Z); 7(E),22(E)-triene]","Serum Bone-Specific Alkaline Phosphatase, Change from Baseline (SE) to Final",[1],−7.922 (1.3520) mcg/L
same,"Serum Bone-Specific Alkaline Phosphatase, Change from Baseline (SE) to Week 11",[1],−4.673 (1.2590) mcg/L
same,"Serum Osteocalcin, Change from Baseline (SE) to Final",[1],−19.00 (4.381) ng/mL
same,"Serum Osteocalcin, Change from Baseline (SE) to Week 11",[1],−4.23 (4.386) ng/mL
same,"Urinary Deoxypyridinoline, Change from Baseline (SE) to Final",[1],−0.0084 (0.00375) nmol/mg Creat
same,"Urinary Deoxypyridinoline, Change from Baseline (SE) to Week 11",[1],−0.0116 (0.00354) nmol/mg Creat
same,"Urinary Pyridinoline, Change from Baseline (SE) to Final",[1],−4.06 (2.276) nmol/mmol Creat
same,"Urinary Pyridinoline, Change from Baseline (SE) to Week 11",[1],−5.46 (2.545) nmol/mmol Creat
same,safety and tolerability,[2]; CKD (Stages 3 and 4) subjects,safe and well tolerated
same,adverse events considered not related to study drug administration,"[2]; TIW, 24 weeks",81%
same,adverse events mild or moderate in severity,"[2]; TIW, 24 weeks",96%
same,subjects with treatment-emergent adverse events,"[2]; TIW, 24 weeks",76%
same,"mean calcium values, range over scheduled visits",[2]; Treatment Phase,9.36 to 9.62 mg/dL
same,subjects reporting serious adverse events,[2]; Treatment and Follow-Up Phases,6 subjects
same,adverse event incidence: diarrhea,[2]; in vivo,9%
same,adverse event incidence: dizziness,[2]; in vivo,12%
same,adverse event incidence: edema,[2]; in vivo,9%
same,adverse event incidence: hypotension,[2]; in vivo,12%
same,adverse event incidence: uremia,[2]; in vivo,12%
same,"serum calcium, mean change from baseline to Last On-Treatment Visit",[2]; in vivo,0.19 mg/dL
same,subjects terminated prematurely due to adverse events,[2]; in vivo,1 subjects
same,subjects who developed clinically meaningful hypercalcemia (at least 2 consecutive calcium values >10.5 mg/dL),[2]; in vivo,1/33
same,"eGFR, mean percent change from baseline to Final Visit",[2]; subjects who completed 24 weeks of treatment,−16.61%
same,safety and tolerability,[3]; CKD (Stages 3 and 4) subjects,safe and well tolerated
same,"mean calcium values, range over scheduled visits",[3]; Treatment Phase,9.24 to 9.54 mg/dL
same,subjects reporting serious adverse events,[3]; Treatment and Follow-Up Phases,7 subjects
same,deaths,"[3]; hepatic encephalopathy, considered not related to study drug",1 subject
same,adverse event incidence: abdominal pain,[3]; in vivo,9%
same,adverse event incidence: accidental injury,[3]; in vivo,17%
same,adverse event incidence: allergic reaction,[3]; in vivo,9%
same,adverse event incidence: cough increased,[3]; in vivo,9%
same,adverse event incidence: diarrhea,[3]; in vivo,11%
same,adverse event incidence: edema,[3]; in vivo,11%
same,adverse event incidence: nausea,[3]; in vivo,9%
same,adverse event incidence: pharyngitis,[3]; in vivo,14%
same,adverse event incidence: rash,[3]; in vivo,11%
same,adverse event incidence: vomiting,[3]; in vivo,11%
same,"phosphorus, mean change from baseline to Final Visit",[3]; in vivo,-0.13 mg/dL
same,"serum calcium, mean change from baseline to Last On-Treatment Visit",[3]; in vivo,0.21 mg/dL
same,subjects terminated prematurely due to adverse events,[3]; in vivo,4 subjects
same,subjects who developed clinically meaningful hypercalcemia (at least 2 consecutive calcium values >10.5 mg/dL),[3]; in vivo,0/35
same,adverse events considered not related to study drug administration,"[3]; once daily, 24 weeks",67%
same,adverse events mild or moderate in severity,"[3]; once daily, 24 weeks",93%
same,subjects with treatment-emergent adverse events,"[3]; once daily, 24 weeks",91%
same,"Serum Bone-Specific Alkaline Phosphatase, Change from Baseline (SE) to Final",[4],−7.575 (1.3976) mcg/L
same,"Serum Bone-Specific Alkaline Phosphatase, Change from Baseline (SE) to Week 11",[4],−5.383 (1.0482) mcg/L
same,"Serum Osteocalcin, Change from Baseline (SE) to Final",[4],−27.07 (5.544) ng/mL
same,"Serum Osteocalcin, Change from Baseline (SE) to Week 11",[4],−0.22 (4.968) ng/mL
same,"Urinary Deoxypyridinoline, Change from Baseline (SE) to Final",[4],0.0100 (0.01392) nmol/mg Creat
same,"Urinary Deoxypyridinoline, Change from Baseline (SE) to Week 11",[4],−0.0216 (0.01018) nmol/mg Creat
same,"Urinary Pyridinoline, Change from Baseline (SE) to Final",[4],0.26 (4.452) nmol/mmol Creat
same,"Urinary Pyridinoline, Change from Baseline (SE) to Week 11",[4],−5.27 (3.884) nmol/mmol Creat
